In PubChem BioAssay AID248 (DTP/NCI, 2004) one finds T/C data, which are given here for 22 compounds.

“And” between values parts separate entries of the source, which are not always exact repeats. Equal values may be shown once. Toxic doses and inconclusive results are not listed.

The test concerns L1210 leukemia ip in BDF1 mice, survival T/C. Kind of test: NCI In Vivo Anticancer Drug Screen. Data for tumor model L1210 Leukemia (intraperitoneal) in B6D2F1 (BDF1) mice. The conditions noted are these: endpoint: mean survival time, higher = longer survival. The method in brief:
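Mice bearing the transplanted tumor received compound or vehicle. Survival of the treated group was divided by that of the vehicle-treated control group to give the ratio.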

[1] abbreviates: dose: 100.0 mg/kg/injection, schedule: Q04DX003 (ip), vehicle: saline.
[2] abbreviates: dose: 200.0 mg/kg/injection, schedule: Q04DX003 (ip), vehicle: saline.
[3] abbreviates: dose: 400.0 mg/kg/injection, schedule: Q04DX003 (ip), vehicle: saline.
[4] abbreviates: dose: 100.0 mg/kg/injection, schedule: Q01DX009 (ip), vehicle: Klucel (hydroxypropylcellulose) (HPC).
The mark [5] stands for this setting: dose: 100.0 mg/kg/injection, schedule: Q04DX003 (ip), vehicle: Klucel (hydroxypropylcellulose) (HPC).
Where [6] appears, read: dose: 200.0 mg/kg/injection, schedule: Q01DX009 (ip), vehicle: Klucel (hydroxypropylcellulose) (HPC).
Where [7] appears, read: dose: 200.0 mg/kg/injection, schedule: Q04DX003 (ip), vehicle: Klucel (hydroxypropylcellulose) (HPC).
Where [8] appears, read: dose: 25.0 mg/kg/injection, schedule: Q01DX009 (ip), vehicle: Klucel (hydroxypropylcellulose) (HPC).
[9] abbreviates: dose: 50.0 mg/kg/injection, schedule: Q01DX009 (ip), vehicle: Klucel (hydroxypropylcellulose) (HPC).
The mark [10] stands for this setting: dose: 100.0 mg/kg/injection, schedule: Q01DX001 (ip), vehicle: carboxymethylcellulose (CMC).
Where [11] appears, read: dose: 200.0 mg/kg/injection, schedule: Q01DX001 (ip), vehicle: carboxymethylcellulose (CMC).
Where [12] appears, read: dose: 400.0 mg/kg/injection, schedule: Q01DX001 (ip), vehicle: carboxymethylcellulose (CMC).
[13] abbreviates: dose: 100.0 mg/kg/injection, schedule: Q04DX002 (ip), vehicle: saline with Tween-80.
[14] abbreviates: dose: 200.0 mg/kg/injection, schedule: Q04DX002 (ip), vehicle: saline with Tween-80.
Setting [15] is: dose: 400.0 mg/kg/injection, schedule: Q04DX002 (ip), vehicle: saline with Tween-80.
[16] abbreviates: dose: 400.0 mg/kg/injection, schedule: Q04DX003 (ip), vehicle: Klucel (hydroxypropylcellulose) (HPC).
The mark [17] stands for this setting: dose: 100.0 mg/kg/injection, schedule: Q04DX002 (ip), vehicle: Klucel (hydroxypropylcellulose) (HPC).
[18] abbreviates: dose: 200.0 mg/kg/injection, schedule: Q04DX002 (ip), vehicle: Klucel (hydroxypropylcellulose) (HPC).
[19] abbreviates: dose: 100.0 mg/kg/injection, schedule: Q01DX001 (ip), vehicle: saline with Tween-80.
[20] abbreviates: dose: 200.0 mg/kg/injection, schedule: Q01DX001 (ip), vehicle: saline with Tween-80.
[21] abbreviates: dose: 400.0 mg/kg/injection, schedule: Q01DX001 (ip), vehicle: saline with Tween-80.
Where [22] appears, read: dose: 50.0 mg/kg/injection, schedule: Q01DX009 (ip), vehicle: saline.
Where [23] appears, read: dose: 100.0 mg/kg/injection, schedule: Q01DX009 (ip), vehicle: saline.

`O=C(O)CSCc1cc(=O)[nH]c(=O)[nH]1`: the T/C reads like this: under setting [1], 96 % of control; under setting [2], 96 % of control; under setting [3], 98 % of control.
For `CCOC(=O)C(=Cc1ccccc1Cl)C(=O)OCC`, the T/C runs as follows: under setting [4], 88 % of control; under setting [5], 104 % of control; under setting [6], 99 % of control; under setting [7], 90 % of control.
With `CC[NH-].[Cl][Pt+2][Cl].[NH2-]`, the T/C is 111 % of control (dose: 0.37 mg/kg/injection, schedule: Q01DX009 (ip), vehicle: other); 107 % of control (dose: 0.75 mg/kg/injection, schedule: Q01DX001 (ip), vehicle: other); 114 % of control (dose: 0.75 mg/kg/injection, schedule: Q01DX009 (ip), vehicle: other); 111 % of control (dose: 1.5 mg/kg/injection, schedule: Q01DX001 (ip), vehicle: other); 114 % of control (dose: 3.0 mg/kg/injection, schedule: Q01DX001 (ip), vehicle: other); 157 % of control (dose: 3.0 mg/kg/injection, schedule: Q01DX009 (ip), vehicle: other).
On to `CC(C)(C)NC(=O)NCc1ccco1`, for which the T/C is 98 % of control (dose: 12.5 mg/kg/injection, schedule: Q01DX009 (ip), vehicle: Klucel (hydroxypropylcellulose) (HPC)); 98 % of control under setting [8]; 101 % of control under setting [9].
Turning to `CCN1CCC(S(=O)(=O)CCS(=O)(=O)C2CCN(CC)C2)C1` (stereo not drawn), the T/C is 95 % of control under setting [10], 94 % of control under setting [11] and 94 % of control under setting [12].
`CC1(C)N=C(N)N=C(N)N1c1ccc(OCCCc2ccccc2)c([N+](=O)[O-])c1`: the T/C by setting is: under setting [4], 103 % of control; under setting [6], 103 % of control.
On to `O=C1OC(/C=C/c2ccccc2)=NC/1=C\c1cc(Br)ccc1O`, for which the T/C runs as follows: under setting [13], 104 % of control; under setting [14], 95 % of control and 97 % of control; under setting [15], 104 % of control and 114 % of control.
In the case of `Cc1cc(NCCCN(C)C)c2c(c1N)C(=O)c1ccccc1C2=O`, the T/C under setting [5] is 88 % of control, the T/C under setting [7] was 92 % of control and the T/C under setting [16] is 92 % of control.
On to `CCCCCCCCP(C)(=O)CCCCCCCC`, for which the T/C is, setting by setting: under setting [17], 105 % of control; under setting [18], 102 % of control.
As to `CCN(CC)C(=O)Oc1cccc(NC(=O)OC)c1`, the T/C under setting [19] is 94 % of control, the T/C under setting [20] was 94 % of control and the T/C under setting [21] is 100 % of control.
On to `O=[N+]([O-])c1ccc(/C=C/c2ccccc2Br)cc1`, for which the T/C is, setting by setting: under setting [4], 106 % of control; under setting [5], 100 % of control; under setting [6], 97 % of control; under setting [7], 98 % of control; (dose: 400.0 mg/kg/injection, schedule: Q01DX009 (ip), vehicle: Klucel (hydroxypropylcellulose) (HPC)) 97 % of control; under setting [16], 98 % of control.
For the compound `C1CN(CSCN2CCOCC2)CCO1`, the T/C under setting [1] is 106 % of control, the T/C under setting [2] was 97 % of control and the T/C under setting [3] was 97 % of control.
For `Cc1cc(N(CCCl)CCCl)ccc1N=Nc1ccccc1C(=O)[O-].Cc1cc(N(CCCl)CCCl)ccc1N=Nc1ccccc1C(=O)[O-].[Cu+2]`, the T/C was 111 % of control (dose: 2.0 mg/kg/injection, schedule: Q01DX015 (ip), vehicle: carboxymethylcellulose (CMC)); 117 % of control (dose: 4.0 mg/kg/injection, schedule: Q01DX015 (ip), vehicle: carboxymethylcellulose (CMC)); 120 % of control (dose: 8.0 mg/kg/injection, schedule: Q01DX015 (ip), vehicle: carboxymethylcellulose (CMC)); 123 % of control (dose: 15.0 mg/kg/injection, schedule: Q01DX015 (ip), vehicle: carboxymethylcellulose (CMC)).
Regarding `Cc1cc(=O)[nH]c(=O)n1Cc1ccccc1`, the T/C by setting is: (dose: 100.0 mg/kg/injection, schedule: Q01DX001 (ip), vehicle: Klucel (hydroxypropylcellulose) (HPC)) 117 % of control; (dose: 200.0 mg/kg/injection, schedule: Q01DX001 (ip), vehicle: Klucel (hydroxypropylcellulose) (HPC)) 117 % of control; (dose: 400.0 mg/kg/injection, schedule: Q01DX001 (ip), vehicle: Klucel (hydroxypropylcellulose) (HPC)) 122 % of control.
Regarding `CC(N)c1ccccc1` (stereo not drawn) (tested in a mixture with another compound), the T/C under setting [22] is 87 % of control and the T/C under setting [23] is 90 % of control.
As for `CCOC(=O)c1ccc(NC(=O)Nc2ccc(OC)cc2OC)cc1`, the T/C (dose: 12.5 mg/kg/injection, schedule: Q01DX009 (ip), vehicle: saline with Tween-80) was 94 % of control and 95 % of control; the T/C (dose: 25.0 mg/kg/injection, schedule: Q01DX009 (ip), vehicle: saline with Tween-80) was 94 % of control and 103 % of control; the T/C (dose: 50.0 mg/kg/injection, schedule: Q01DX009 (ip), vehicle: saline with Tween-80) was 95 % of control and 87 % of control; the T/C under setting [19] is 86 % of control; the T/C under setting [13] was 97 % of control; the T/C under setting [20] is 89 % of control. Also, the T/C was 91 % of control under setting [14], 91 % of control under setting [21] and 93 % of control under setting [15].
With `C[N+](C)(C)CCOC(=O)Nc1ccc(C(c2ccc(NC(=O)OCC[N+](C)(C)C)cc2)c2ccc(NC(=O)OCC[N+](C)(C)C)cc2)cc1`, the T/C was 98 % of control (dose: 0.25 mg/kg/injection, schedule: Q01DX009 (ip), vehicle: saline with Tween-80) and 100 % of control (dose: 0.5 mg/kg/injection, schedule: Q01DX009 (ip), vehicle: saline with Tween-80).
On to `CCOC(=O)c1oc2cc(O)cc(C)c2c1C`, for which the T/C runs as follows: (dose: 50.0 mg/kg/injection, schedule: Q01DX001 (ip), vehicle: carboxymethylcellulose (CMC)) 97 % of control; under setting [10], 100 % of control; under setting [11], 94 % of control; under setting [12], 94 % of control.
As to `O=C(CCl)Nc1ccc(O)c2ccccc12`, the T/C (dose: 75.0 mg/kg/injection, schedule: Q01DX001 (ip), vehicle: other) is 102 % of control and the T/C (dose: 150.0 mg/kg/injection, schedule: Q01DX001 (ip), vehicle: other) is 91 % of control.
Turning to `Cc1cc(Oc2ccc(Cl)cc2NC(=O)Nc2ccc(Cl)c(Cl)c2)c(S(=O)(=O)O)cc1Cl`, the T/C is, setting by setting: (dose: 12.5 mg/kg/injection, schedule: Q04DX003 (ip), vehicle: saline) 103 % of control; (dose: 25.0 mg/kg/injection, schedule: Q01DX009 (ip), vehicle: saline) 103 % of control; (dose: 25.0 mg/kg/injection, schedule: Q04DX003 (ip), vehicle: saline) 105 % of control; under setting [22], 95 % of control; (dose: 50.0 mg/kg/injection, schedule: Q04DX003 (ip), vehicle: saline) 103 % of control; under setting [23], 101 % of control. Further, the T/C under setting [1] was 97 % of control.
`CC(=O)Oc1ccc2ccnc(/C=N\NC(N)=S)c2c1`: the T/C is 106 % of control under setting [17]; 98 % of control under setting [18]; 117 % of control (dose: 400.0 mg/kg/injection, schedule: Q04DX002 (ip), vehicle: Klucel (hydroxypropylcellulose) (HPC)).
For `Cc1ccccc1NC(=S)N(C)C`, the T/C reads like this: under setting [8], 103 % of control; (dose: 25.0 mg/kg/injection, schedule: Q04DX003 (ip), vehicle: Klucel (hydroxypropylcellulose) (HPC)) 98 % of control; under setting [9], 104 % of control; (dose: 50.0 mg/kg/injection, schedule: Q04DX003 (ip), vehicle: Klucel (hydroxypropylcellulose) (HPC)) 91 % of control; under setting [4], 103 % of control; under setting [5], 95 % of control and 103 % of control.
